Source: patent publication US4179508A, “Sulfur-containing derivatives of 4,4-dimethyl-2H,4H-isoquinoline-1,3-dione, and anticonvulsant and antihyperlipidemic compositions thereof” (Boehringer Ingelheim GmbH, priority 1977, dated 1979)
Read-outs that look alike come from different tables or passages of the source.

Assays:
Assay type in all cases: in vivo
[1] = test system: hind limb tonic extensor component of the maximal seizure pattern; assay: Anticonvulsive activity in mice, maximal electroshock seizure pattern method; conditions: Mus musculus, male mice, oral, maximal electroshock 50 mA, 0.2 sec.
Method: (§1) The anticonvulsive activity and toxicity of the compounds of this invention were ascertained by the methods described below, and tables I and II show the results of these tests for a few representative species of the genus, where
Male mice with body weights of between 20 and 26 gm were used as the test animals. They were allowed free access to food and water up to one hour before administration of the test compound. The tests were carried out by using the maximal electroshock seizure pattern method [SWINYARD et, J. Pharmacol. exp. Ther. 106, 319 (1952)].
The electroshock apparatus was constructed according to WOODBURY and DAVENPORT [Arch. int. Pharmacodyn. 99, 97 (1952)]. The electric impulses (50 Hz A.C., 50 mA, 0.2 sec.) were delivered via steel ball electrodes covered with buckskin and moistened with an aqueous 0.9% sodium chloride solution to the heads by way of the eyes of the mice. The test is a measure of the ability of an anticonvulsant drug to abolish the hind limb tonic extensor component of the maximal seizure pattern induced by electric stimulation. The test compound was suspended in 1% of tylose and administered orally in a volume of 0.1 ml per 10 gm of mouse, and each dosage was administered to a group of 10 animals. Control groups received the suspension agent orally. 30, 150 and 300 minutes after administration all animals were shocked. ED50 values were determined by the graphic statistical method of LITCHFIELD and WILCOXON [J. Pharmacol. exp. Therap. 96, 99 (1949)] as a measure of the ability of the test compounds to abolish the hindlimb tonic extensor compound of the maximal seizure pattern in 50 percent of the animals.

[2] = Acute toxicity; conditions: mouse, in vivo, po; mice, p.o., groups of 10, observation time 4 days
Method: as §1
(§2) The acute toxicity of the compounds was determined after administration of various dosages to groups of 10 mice with body weights of between 20 and 26 gm (observation time: 4 days).

[3] = test system: mice; assay: Acute toxicity; conditions: 500 mgm/kg p.o., observation time 4 days
Method: as §1, §2

[4] = 0.5 h, shocked 30 minutes after administration, read-out: ED50, 30 minutes
[5] = 2.5 h, shocked 150 minutes after administration, read-out: ED50, 150 minutes
[6] = 5 h, shocked 300 minutes after administration, read-out: ED50, 300 minutes

## C[S+]([O-])CCN1C(=O)c2ccccc2C(C)(C)C1=O (stereo not drawn) [B, 4,4-Dimethyl-2-(2-methylsulfinyl-ethyl)-2H,4H-isoqionoline-1,3-dione]
[1]; [4]
  ED50: 14.5 mg/kg
[1]; [5]
  ED50: 16.8 mg/kg
[1]; [6]
  ED50: 25 mg/kg
[2]
  LD50 at 96 h: ~500 mg/kg
[3]
  animals died: 4 of 10

## CC1(C)C(=O)N(CCS(C)(=O)=O)C(=O)c2ccccc21 [C, 4,4-Dimethyl-2-(2-methylsulfonyl-ethyl)-2H,4H-isoquinoline-1,3-dione]
[1]; [4]
  ED50: 26.3 mg/kg
[1]; [5]
  ED50: 35.2 mg/kg
[1]; [6]
  ED50: 32.5 mg/kg
[2]
  LD50 at 96 h: > 500 mg/kg
[3]
  animals died: 1 of 10

## CSCCN1C(=O)c2ccccc2C(C)(C)C1=O [Compound A, 4,4-Dimethyl-2-(2-methylmercapto-ethyl)-2H,4H-isoquinoline-1,3-dione]
[1]; [4]
  ED50: 17.3 mg/kg
[1]; [5]
  ED50: 22.8 mg/kg
[1]; [6]
  ED50: 27.8 mg/kg
[2]
  LD50 at 96 h: > 500 mg/kg
[3]
  animals died: 0 of 10

## CSCN1C(=O)c2ccccc2C(C)(C)C1=O [D, 4,4-Dimethyl-2-(methylmercapto-methyl)-2H,4H-isoquinoline-1,3-dione]
[1]; [4]
  ED50: 28 mg/kg
[1]; [5]
  ED50: 16.2 mg/kg
[1]; [6]
  ED50: 19.8 mg/kg

## C[S+]([O-])CN1C(=O)c2ccccc2C(C)(C)C1=O (stereo not drawn) [E, 4,4-Dimethyl-2-(methylsulfinyl-methyl)-2H,4H-isoquinoline-1,3-dione]
[1]; [4]
  ED50: 8.3 mg/kg
[1]; [5]
  ED50: 10.5 mg/kg
[1]; [6]
  ED50: 11.5 mg/kg
